Measured values as given in US7910575B2, “Prophylactic or therapeutic agents for allergic ophthalmic diseases or allergic nasal diseases, comprising tricyclic triazolobenzazepine derivative” (Meiji Seika Kaisha, Ltd., priority 2006, dated 2011).
Marks after values point to notes of the source that are not given here.

Experiments:
allergic rhinitis = test: Prophylactic effect on allergic rhinitis, oral administration; type: in vivo, rat; details: 15 min before antigen administration
Description: The prophylactic effect of compound B on allergic rihinitis in the same manner as in Test Example 4-1, except that compound B was suspended in hydroxypropylmethylcellulose and the suspension was orally administered. The medicament was administered 15 min before the administration of the antigin (start of allergy).

rabbit eye (conjunctiva) = test: Severe eye irritation test using rabbits; type: in vivo; details: 1%, instillation six times per day at 30 min intervals for two days
[1] = WO 99/16770; cited from earlier work

Which results are given for `COc1cc2[nH]c(=O)c3nn(C(OC(=O)OC(C)C)C(C)C)nc3c(=O)c2cc1OC` (stereo not shown) [Compound B, 2-(1-Isopropoxycarbonyloxy-2-methylpropyl)-7,8-dimethoxy-4(5H),10-dioxo-2H-1,2,3-triazolo[4,5-c][1]benzazepine]?
Increase in dye leakage amount Inhibition ratio (allergic rhinitis; 1 mg/kg (200 μg/rat)): 46.3% **; Increase in dye leakage amount Inhibition ratio (allergic rhinitis; 5 mg/kg (1000 μg/rat)): 81.9% **; eye irritation (rabbit eye (conjunctiva)): only slight reddening of the conjunctiva was observed; improvement of absorption upon oral administration as compared with compound A [1]: by a factor of seven
